Reference: patent publication US20230017045A1, “PYRIDINE AND PYRIMIDINE CARBOXYLATE HERBICIDES AND METHODS OF USE THEREOF” (Dow AgroSciences LLC, priority 2017, published 2023)
Where two headings read alike, the source gives them in different places.

Test system: test plant species
Test: Post-emergent herbicidal activity test (greenhouse, foliar spray, visual growth reduction)
Assay type: in vivo
Conditions: post-emergence, 336 h, 140 g ai/ha
Procedure: Post-emergent Test: Seeds or nutlets of the desired test plant species were planted in Sun Gro Metro-Mix® 360 planting mixture, which typically has a pH of 6.0 to 6.8 and an organic matter content of about 30 percent, in plastic pots with a surface area of 64 square centimeters. In some aspects, to ensure good germination and healthy plants, a fungicide treatment and/or other chemical or physical treatment was applied. The plants were grown for 7-21 d in a greenhouse with an approximate 15 h photoperiod which was maintained at 23-29° C. during the day and 22-28° C. during the night. Nutrients and water were added on a regular basis and supplemental lighting was provided with overhead metal halide 1000-Watt lamps as necessary. Plants were used for testing when they reached the first or second true leaf stage. A weighed amount, determined by the highest rate to be tested, of each test compound was placed in a 25 mL glass vial and was dissolved in 4 mL of a 97:3 v/v mixture of acetone and DMSO to obtain concentrated stock solutions. […] The concentrated stock solutions obtained were diluted with 20 mL of an aqueous mixture containing acetone, water, isopropyl alcohol, DMSO, […] crop oil concentrate, and X-77 surfactant in a 48.5:39:10:1.5:1.0:0.02 v/v ratio to obtain spray solutions containing the application rate. Compound requirements are based upon a 12 mL application volume at a rate of 187 liters per hectare (L/ha). Formulated compounds were applied to the plant material with an overhead Mandel track sprayer equipped with […] nozzles calibrated to deliver 187 L/ha over an application area of 0.64 square meters at a spray height of 18 inches (43 cm) above the average plant canopy height. Control plants were sprayed in the same manner with the solvent blank. The treated plants and control plants were placed in a greenhouse as described above and watered by subirrigation to prevent wash-off of the test compounds. After 14 d, the condition of the test plants as compared with that of the nontreated and control plants was determined visually and scored on a scale of 0 to 100 percent where 0 corresponds to no injury and 100 corresponds to complete control. In the reporting of the results, Table A: Percent Growth Reduction Conversion Table was used.

[1] = ECHCG: barnyardgrass (Echinochloa crus-galli), 14 days after application, read-out: Visual Growth Reduction (%) 14 Days After Application, ECHCG
[2] = IPOHE: ivy-leaf morning glory (Ipomoea hederacea), 14 days after application, read-out: Visual Growth Reduction (%) 14 Days After Application, IPOHE
[3] = KCHSC: kochia (Bassia scoparia), 14 days after application, read-out: Visual Growth Reduction (%) 14 Days After Application, KCHSC
[4] = ORYSA: rice (Oryza sativa), 14 days after application, read-out: Visual Growth Reduction (%) 14 Days After Application, ORYSA
[5] = SETFA: giant foxtail (Setaria faberi), 14 days after application, read-out: Visual Growth Reduction (%) 14 Days After Application, SETFA
[6] = SORVU: grain sorghum (Sorghum vulgare), 14 days after application, read-out: Visual Growth Reduction (%) 14 Days After Application, SORVU
[7] = STEME: common chickweed (Stellaria media), 14 days after application, read-out: Visual Growth Reduction (%) 14 Days After Application, STEME
[8] = TRZAS: wheat, spring (Triticum aestivum), 14 days after application, read-out: Visual Growth Reduction (%) 14 Days After Application, TRZAS
[9] = blackgrass (Alopecurus myosuroides), 14 Days After Application, read-out: Visual Growth Reduction (%) ALOMY
[10] = canada thistle (Cirsium arvense), 14 Days After Application, read-out: Visual Growth Reduction (%) CIRAR
[11] = crabgrass (Digitaria sanguinalis), 14 Days After Application, read-out: Visual Growth Reduction (%) DIGSA
[12] = lambsquarters (Chenopodium album), 14 Days After Application, read-out: Visual Growth Reduction (%) CHEAL
[13] = redroot pigweed (Amaranthus retroflexus), 14 Days After Application, read-out: Visual Growth Reduction (%) AMARE
[14] = wild oat (Avena fatua), 14 Days After Application, read-out: Visual Growth Reduction (%) AVEFA
[15] = yellow nutsedge (Cyperus esculentus), 14 Days After Application, read-out: Visual Growth Reduction (%) CYPES

For `COC(=O)c1nc(-c2ccc(C(F)(F)F)cc2Cl)ccc1F` [F113, methyl 6-(2-chloro-4-(trifluoromethyl)phenyl)-3-fluoropicolinate], the pest or weed control at 140 g/ha (ALOMY: blackgrass (Alopecurus myosuroides), 14 days after application, read-out: Visual Growth Reduction (%) 14 Days After Application, ALOMY) was 0 to 29%, the pest or weed control at 140 g/ha (AMARE: redroot pigweed (Amaranthus retroflexus), 14 days after application, read-out: Visual Growth Reduction (%) 14 Days After Application, AMARE) was 95 to 100% and the pest or weed control at 140 g/ha (AVEFA: wild oat (Avena fatua), 14 days after application, read-out: Visual Growth Reduction (%) 14 Days After Application, AVEFA) was 45 to 59%. The pest or weed control at 140 g/ha (CHEAL: lambsquarters (Chenopodium album), 14 days after application, read-out: Visual Growth Reduction (%) 14 Days After Application, CHEAL) was 95 to 100%, the pest or weed control at 140 g/ha (CIRAR: canada thistle (Cirsium arvense), 14 days after application, read-out: Visual Growth Reduction (%) 14 Days After Application, CIRAR) was 85 to 94% and the pest or weed control at 140 g/ha (CYPES: yellow nutsedge (Cyperus esculentus), 14 days after application, read-out: Visual Growth Reduction (%) 14 Days After Application, CYPES) was 0 to 29%. It also gave a pest or weed control at 140 g/ha (DIGSA: crabgrass (Digitaria sanguinalis), 14 days after application, read-out: Visual Growth Reduction (%) 14 Days After Application, DIGSA) of 85 to 94%, a pest or weed control at 140 g/ha [1] of 75 to 84% and a pest or weed control at 140 g/ha [2] of 95 to 100%. It also gave a pest or weed control at 140 g/ha [3] of 60 to 74%, a pest or weed control at 140 g/ha [4] of 30 to 44% and a pest or weed control at 140 g/ha [5] of 75 to 84%. The pest or weed control at 140 g/ha [6] was 85 to 94%, the pest or weed control at 140 g/ha [7] was 0 to 29% and the pest or weed control at 140 g/ha [8] was 0 to 29%.

With `C=Cc1cc(C(F)(F)F)cc(Cl)c1-c1ccc(Cl)c(C(=O)OC)n1` [F216, methyl 3-chloro-6-(2-chloro-4-(trifluoromethyl)-6-vinylphenyl)picolinate] the pest or weed control at 140 g/ha [1] was 0 to 29%, the pest or weed control at 140 g/ha [2] was 95 to 100% and the pest or weed control at 140 g/ha [3] was 30 to 44%. For the same compound, the pest or weed control at 140 g/ha [4] was 0 to 29%, the pest or weed control at 140 g/ha [5] was 60 to 74% and the pest or weed control at 140 g/ha [6] was 60 to 74%. For the same compound, the pest or weed control at 140 g/ha [7] was 0 to 29%, the pest or weed control at 140 g/ha [8] was 45 to 59% and the pest or weed control at 140 g/ha [9] was 0 to 29%. The pest or weed control at 140 g/ha [10] was 60 to 74%, the pest or weed control at 140 g/ha [11] was 0 to 29% and the pest or weed control at 140 g/ha [12] was 95 to 100%. It also gave a pest or weed control at 140 g/ha [13] of 30 to 44%, a pest or weed control at 140 g/ha [14] of 0 to 29% and a pest or weed control at 140 g/ha [15] of 0 to 29%.

In the case of `C#Cc1cc(C(F)(F)F)cc(Cl)c1-c1ccc(Cl)c(C(=O)OC)n1` [F239, methyl 3-chloro-6-(2-chloro-6-ethynyl-4-(trifluoromethyl)phenyl)picolinate], the pest or weed control at 140 g/ha [1] is reported as 0 to 29%, the pest or weed control at 140 g/ha [2] is reported as 75 to 84% and the pest or weed control at 140 g/ha [3] is reported as 0 to 29%. For the same compound, the pest or weed control at 140 g/ha [4] was 0 to 29%, the pest or weed control at 140 g/ha [5] was 0 to 29% and the pest or weed control at 140 g/ha [6] was 60 to 74%. The pest or weed control at 140 g/ha [7] was 0 to 29%, the pest or weed control at 140 g/ha [8] was 0 to 29% and the pest or weed control at 140 g/ha [9] was 0 to 29%. It also gave a pest or weed control at 140 g/ha [10] of 0 to 29%, a pest or weed control at 140 g/ha [11] of 0 to 29% and a pest or weed control at 140 g/ha [12] of 30 to 44%. It also gave a pest or weed control at 140 g/ha [13] of 0 to 29%, a pest or weed control at 140 g/ha [14] of 0 to 29% and a pest or weed control at 140 g/ha [15] of 0 to 29%.

Work on `COC(=O)c1nc(-c2ccc3ncoc3c2)ccc1Cl` [F262, Methyl 6-(benzo[d]oxazol-6-yl)-3-chloropicolinate] yielded a pest or weed control at 140 g/ha [1] of 0 to 29%, a pest or weed control at 140 g/ha [2] of 30 to 44% and a pest or weed control at 140 g/ha [3] of 0 to 29%. For the same compound, the pest or weed control at 140 g/ha [4] was 0 to 29%, the pest or weed control at 140 g/ha [5] was 0 to 29% and the pest or weed control at 140 g/ha [6] was 0 to 29%. For the same compound, the pest or weed control at 140 g/ha [7] was 0 to 29%, the pest or weed control at 140 g/ha [8] was 0 to 29% and the pest or weed control at 140 g/ha [9] was 0 to 29%. It also gave a pest or weed control at 140 g/ha [10] of 0 to 29%, a pest or weed control at 140 g/ha [11] of 0 to 29% and a pest or weed control at 140 g/ha [12] of 30 to 44%. It also gave a pest or weed control at 140 g/ha [13] of 0 to 29%, a pest or weed control at 140 g/ha [14] of 0 to 29% and a pest or weed control at 140 g/ha [15] of 0 to 29%.
